Marks after values point to notes of the source that are not given here.
Assays:
[1] = tested on: Colletotrichum orbiculare; assay: Test B: cucumber Colletotrichum anthracnose, preventive spray on cucumber seedlings
[2] = tested on: Erysiphe graminis f. sp. tritici; assay: Test L: wheat powdery mildew, preventive spray on wheat seedlings
Septoria tritici = assay: Test J: wheat leaf blotch, preventive spray on wheat seedlings; format: in vivo
Text: A dash (-) indicates no test results.

Plasmopara viticola = assay: Test D: grape downy mildew, spray after inoculation of grape seedlings; format: in vivo
Text: Upon removal, disease ratings were made. […] A dash (-) indicates no test results.

Pythium aphanidermatum = assay: Test A: bluegrass pythium blight, preventive spray on bluegrass seedlings
Sclerotinia sclerotiorum = assay: Test C: cucumber white mold, preventive spray on cucumber seedlings
[3] = tested on: Puccinia recondita f. sp. tritici; assay: Test K: wheat leaf rust, preventive spray on wheat seedlings
Rhizoctonia oryzae = assay: Test G: turf brown patch, preventive spray on creeping bent grass seedlings
Description: (the causal agent of turf brown patch) and incubated in a saturated atmosphere at 27° C. for 24 h, and then moved to a growth chamber at 27° C. for 5 days, after which disease ratings were made.

Phytophthora infestans = assay: whole plant or invertebrate; format: in vivo
fusarium graminearium = assay: Test I: wheat head scab, preventive spray on wheat seedlings
Description: (the causal agent of wheat head scab) and incubated in a saturated atmosphere at 20° C. for 72 h, and then moved to a growth chamber at 22° C. for 5 days, after which disease ratings were made.

Botrytis cinerea = assay: Test E: tomato botrytis, preventive spray on tomato seedlings
Septoria nodorum = assay: Test H: wheat glum blotch, preventive spray on wheat seedlings
Description: (the causal agent of wheat glum blotch) and incubated in a saturated atmosphere at 20° C. for 48 h, and then moved to a growth chamber at 22° C. for 5 days, after which disease ratings were made.

[4] = 200 ppm, 100 = 100% disease control, 0 = no control
[5] = 40 ppm (marked *), 100 = 100% disease control, 0 = no control

Row | SMILES | Test B disease control rating [1, 5] | Test L disease control rating [2, 5] | Test J disease control rating (Septoria tritici; [5]) | Test D disease control rating (Plasmopara viticola; [5]) | Test A disease control rating (Pythium aphanidermatum; [5]) | Test C disease control rating (Sclerotinia sclerotiorum; [5]) | Test K disease control rating [3, 5] | Test G disease control rating (Rhizoctonia oryzae; [5]) | Test F disease control rating (Phytophthora infestans; [5]) | Test I disease control rating (fusarium graminearium; [5]) | Test E disease control rating (Botrytis cinerea; [5]) | Test H disease control rating (Septoria nodorum; [5]) | other results
1 | Cc1ccn(-c2nc(Br)c(-c3c(F)cccc3F)n(CC(C)C)c2=O)n1 [compound 242] | – | – | – | – | – | – | – | – | – | – | – | – | Test B disease control rating ([1]; 40 ppm (*)): 73* %; Test L disease control rating ([2]; 40 ppm (*)): 99* %; Test J disease control rating (Septoria tritici; 40 ppm (*)): 100* %; Test D disease control rating (Plasmopara viticola; 40 ppm (*)): 0* %; Test A disease control rating (Pythium aphanidermatum; 40 ppm (*)): 0* %; Test C disease control rating (Sclerotinia sclerotiorum; 40 ppm (*)): 0* %; Test K disease control rating ([3]; 40 ppm (*)): 92* %; Test G disease control rating (Rhizoctonia oryzae; 40 ppm (*)): 82* %; Test F disease control rating (Phytophthora infestans; 40 ppm (*)): 0* %; Test I disease control rating (fusarium graminearium; 40 ppm (*)): 0* %; Test E disease control rating (Botrytis cinerea; 40 ppm (*)): 100* %; Test H disease control rating (Septoria nodorum; 40 ppm (*)): 94* %
2 | Cc1ccn(-c2nc(Cl)c(-c3cccc4c3OCO4)n(CC(C)C)c2=O)n1 [compound 255] | – | – | – | – | – | – | – | – | – | – | – | – | Test B disease control rating [1, 4]: 0%; Test L disease control rating [2, 4]: 0%; Test J disease control rating (Septoria tritici; [4]): 71%; Test D disease control rating (Plasmopara viticola; [4]): 0%; Test A disease control rating (Pythium aphanidermatum; [4]): 0%; Test C disease control rating (Sclerotinia sclerotiorum; [4]): 0%; Test K disease control rating [3, 4]: 61%; Test G disease control rating (Rhizoctonia oryzae; [4]): 0%; Test F disease control rating (Phytophthora infestans; [4]): 0%; Test I disease control rating (fusarium graminearium; [4]): 0%; Test E disease control rating (Botrytis cinerea; [4]): 99%; Test H disease control rating (Septoria nodorum; [4]): 0%
3 | Cc1ccn(-c2nc(Cl)c(-c3ccc4c(c3)OC(F)(F)O4)n(CC(C)C)c2=O)n1 [compound 256] | – | – | – | – | – | – | – | – | – | – | – | – | Test B disease control rating [1, 4]: 0%; Test L disease control rating [2, 4]: 0%; Test J disease control rating (Septoria tritici; [4]): 38%; Test D disease control rating (Plasmopara viticola; [4]): 0%; Test A disease control rating (Pythium aphanidermatum; [4]): 0%; Test C disease control rating (Sclerotinia sclerotiorum; [4]): 0%; Test K disease control rating [3, 4]: 0%; Test G disease control rating (Rhizoctonia oryzae; [4]): 0%; Test F disease control rating (Phytophthora infestans; [4]): 0%; Test I disease control rating (fusarium graminearium; [4]): 0%; Test E disease control rating (Botrytis cinerea; [4]): 0%; Test H disease control rating (Septoria nodorum; [4]): 0%
4 | Cc1ccn(-c2nc(Cl)c(-c3cc4c(cc3Cl)OCO4)n(CC(C)C)c2=O)n1 [compound 257] | – | – | – | – | – | – | – | – | – | – | – | – | Test B disease control rating [1, 4]: 0%; Test L disease control rating [2, 4]: 0%; Test J disease control rating (Septoria tritici; [4]): 71%; Test D disease control rating (Plasmopara viticola; [4]): 0%; Test A disease control rating (Pythium aphanidermatum; [4]): 81%; Test C disease control rating (Sclerotinia sclerotiorum; [4]): 0%; Test K disease control rating [3, 4]: 74%; Test G disease control rating (Rhizoctonia oryzae; [4]): 0%; Test F disease control rating (Phytophthora infestans; [4]): 0%; Test I disease control rating (fusarium graminearium; [4]): 0%; Test E disease control rating (Botrytis cinerea; [4]): 99%; Test H disease control rating (Septoria nodorum; [4]): 0%
5 | Cc1cc(C)c(-c2c(Cl)nc(-n3ccc(C)n3)c(=O)n2CC(C)C)c(C)c1 [compound 258] | 0* % | 0* % | 82* % | 0* % | 0* % | 49* % | 41* % | 0* % | 0* % | 0* % | 59* % | 0* % | –
6 | CCCCn1c(-c2ccc(F)cc2Cl)c(Cl)nc(-n2ccc(C)n2)c1=O [compound 265] | 90* % | 91* % | 100* % | 0* % | 0* % | 0* % | 94* % | 50* % | 0* % | 0* % | 100* % | 95* % | –
7 | CCCCn1c(-c2ccc(F)cc2Cl)c(Cl)nc(-n2cccn2)c1=O [compound 266] | 99* % | 99* % | 100* % | 0* % | 0* % | 0* % | 99* % | 90* % | 0* % | 0* % | 100* % | 99* % | –
8 | CCCCn1c(-c2ccc(F)cc2Cl)c(Cl)nc(N2CCC=N2)c1=O [compound 267] | 0* % | 0* % | 60* % | 0* % | 0* % | 0* % | 68* % | 0* % | 0* % | 0* % | 100* % | 0* % | –
9 | O=c1c(-n2cccn2)nc(Cl)c(-c2c(F)cccc2F)n1CCO [compound 268] | 0* % | 0* % | 7* % | 0* % | 0* % | 0* % | 82* % | 0* % | 0* % | 0* % | 0* % | 0* % | –
10 | O=c1c(-n2cccn2)nc(Cl)c(-c2c(F)cccc2F)n1CCF [compound 269] | 0* % | 0* % | 99* % | 0* % | 0* % | 0* % | 91* % | 0* % | 0* % | 0* % | 0* % | 100* % | –
11 | O=c1c(-n2cccn2)nc(Cl)c(-c2c(F)cccc2F)n1CCBr [compound 270] | 0* % | 0* % | 95* % | 24* % | 0* % | 0* % | 94* % | 0* % | 0* % | 0* % | 85* % | 0* % | –
12 | O=c1c(-n2cccn2)nc(Cl)c(-c2c(F)cccc2F)n1Cc1ccc(F)cc1 [compound 272] | 95* % | 100* % | 100* % | 57* % | 0* % | 44* % | 100* % | 59* % | 0* % | 0* % | 100* % | 99* % | –
